From PubChem BioAssay AID2060510 (Molecular Pharmacology Branch, DTP, NCI, 2025)

System: 439559-082-T-J2-PDC spheroids viability
Assay: Anticancer human tumor 439559-082-T-J2-PDC patient-derived colon adenocarcinoma cell line growth inhibition [GQUAD]
Details: for IC50: curve of first compound; for viability, T/C: stronger effect = lower value
Source text: DNA G-quadruplex Stabilizer Agents in Combinations in Complex Spheroids
A high-throughput screen of multi-cell type tumor spheroids was designed to identify active combinations of DNA G-quadruplex stabilizer agents and targeted small molecules. Complex spheroids include a stromal component modeled by human endothelial cells (HUVEC) and fibroblasts modeled by human mesenchymal stem cells (MSCs). The concentration ranges selected for each drug and investigational agent were based upon clinically achievable concentrations if the clinical Cmax of the agent was known.
Compounds. The drugs and investigational agents: pidnarulex (CX-5461; NSC782164), APTO-253 (NSC789042), BRACO-19 (NSC847499), peposertib (NSC802822), ceralasertib (NSC780249), elimusertib (NSC800525), camonsertib (NSC841442), AZD-1390 (NSC803789), olaparib (NSC753686), talazoparib (NSC767125), ART-558 (NSC835418), sotorasib (NSC818433), MRTX-1133 (NSC836407), SN-38 (NSC673596), topotecan (NSC609699), etoposide (NSC141540), doxorubicin (NSC123127), gemcitabine (NSC613327), 5-fluorouracil (NSC19893), paclitaxel (NSC125973), vemurafenib (NSC761431), panobinostat (NSC761190), R-306465 (JNJ-16241199; NSC773264), adavosertib (NSC754352), TP-3654 (NSC805149), carboplatin (NSC241240), KSQ-4279 (NSC840948), and staurosporine (NSC755774) were obtained from the National Cancer Institute (NCI) Developmental Therapeutics Program Chemical Repository (34). The FDA-approved anticancer drug set is available from the NCI Developmental Therapeutics Program. […] The stock solutions were prepared in dimethyl sulfoxide (DMSO, Sigma-Aldrich, St. Louis, MO, cat. D2650) at 800-fold the tested concentration and stored at -70 degrees C prior to their use. All drugs and investigational agents were tested over a range starting from a high concentration at or near the clinical Cmax and decreasing in half-log increments. If the clinical Cmax for an agent had not been determined, the highest concentration tested was 10 microM.
2.3 Cell Culture. All cells were maintained in an incubator at 37 degrees C and 5% CO2 with 95% humidity. The PDC lines were cultured according to standard operating procedures established by the NCI PDMR. All PDCs were thawed and cultured in Matrigel-coated flasks prepared with a working solution of 1X Ham's F-12 nutrient mix, without supplementation (Invitrogen, cat. 11765054), 100 U/mL penicillin-streptomycin (Invitrogen, cat. 15140122), and 2.5% Matrigel (Corning Inc., cat. 354248) for the first three passages. The 857933-349-R-J2-PDC line was cultured in 6C/Colon 1B media, which includes advanced DMEM/F-12 (Thermo Fisher Scientific, cat. 12634028), 10 mM HEPES (Thermo Fisher Scientific, cat. 15630080), 1X GlutaMAX supplement (Thermo Fisher Scientific, cat. 35050061), 0.1 mg/mL primocin (InvivoGen, cat. ant-pm-2), 10% defined fetal bovine serum, heat inactivated (HyClone Laboratories Inc., cat. SH30070.03HI), 50% L-WRN conditioned media (ATCC, cat. CRL-3276), 1.25 mM N-Acetyl-L-cysteine (Sigma-Aldrich, cat. A9165), 10 mM nicotinamide (Sigma-Aldrich, cat. N0636), 1X B-27 supplement (Thermo Fisher Scientific, cat. 17504044), 1X N-2 supplement (Thermo Fisher Scientific, cat. 17502048), 10 microM Y-27632 dihydrochloride (Tocris Bioscience, cat. 1254), and 50 ng/mL human EGF recombinant protein (Thermo Fisher Scientific, cat. PHG0311). The 485176-168-R4-J1-PDC line was cultured in Panc media, which includes all 6C/Colon 1B media components plus 100 ng/mL human FGF-10 (Thermo Fisher Scientific, cat. 100-26), 500 nM SB-431542 (Selleckchem, cat. S1067), and gastrin (Tocris, cat. 3006).
[…]

[1] = second compound 0.0316 µM, first compound 0.0316 µM
[2] = second compound 0.0316 µM, first compound 0.1 µM
[3] = second compound 0.0316 µM, first compound 0.316 µM
[4] = second compound 0.0316 µM, first compound 1 µM
[5] = second compound 0.0316 µM, first compound 3.16 µM
[6] = second compound 0.0316 µM, first compound 10 µM
[7] = second compound 0.1 µM, first compound 0.0316 µM
[8] = second compound 0.1 µM, first compound 0.1 µM
[9] = second compound 0.1 µM, first compound 0.316 µM
[10] = second compound 0.1 µM, first compound 1 µM
[11] = second compound 0.1 µM, first compound 3.16 µM
[12] = second compound 0.1 µM, first compound 10 µM
[13] = second compound 0.316 µM, first compound 0.0316 µM
[14] = second compound 0.316 µM, first compound 0.1 µM
[15] = second compound 0.316 µM, first compound 0.316 µM
[16] = second compound 0.316 µM, first compound 1 µM
[17] = second compound 0.316 µM, first compound 3.16 µM
[18] = second compound 0.316 µM, first compound 10 µM
[19] = second compound 1 µM, first compound 0.0316 µM
[20] = second compound 1 µM, first compound 0.1 µM
[21] = second compound 1 µM, first compound 0.316 µM
[22] = second compound 1 µM, first compound 1 µM
[23] = second compound 1 µM, first compound 3.16 µM
[24] = second compound 1 µM, first compound 10 µM
[25] = second compound 3.16 µM, first compound 0.0316 µM
[26] = second compound 3.16 µM, first compound 0.1 µM
[27] = second compound 3.16 µM, first compound 0.316 µM
[28] = second compound 3.16 µM, first compound 1 µM
[29] = second compound 3.16 µM, first compound 3.16 µM
[30] = second compound 3.16 µM, first compound 10 µM
[31] = second compound 10 µM, first compound 0.0316 µM
[32] = second compound 10 µM, first compound 0.1 µM
[33] = second compound 10 µM, first compound 0.316 µM
[34] = second compound 10 µM, first compound 1 µM
[35] = second compound 10 µM, first compound 3.16 µM
[36] = second compound 10 µM, first compound 10 µM
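Note: spheroids exposed to the agents for 7 days before readout.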
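Throughout, for viability, T/C: percent of luminescence signal in DMSO vehicle wells taken as 100% viability.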

With `COc1cccc2c1C(=O)c1c(O)c3c(c(O)c1C2=O)CC(O)(C(=O)CO)CC3OC1CC(N)C(O)C(C)O1` (centres undefined) + CN(C)c1ccc(Nc2c3ccc(NC(=O)CCN4CCCC4)cc3nc3cc(NC(=O)CCN4CCCC4)ccc23)cc1 the IC50 (second compound 0.0316 µM) was 5.76 µM, the IC50 (second compound 0.1 µM) was 7.85 µM and the IC50 (second compound 0.316 µM) was 6.45 µM. For the same compound, the IC50 (second compound 1 µM) was 5.9 µM, the IC50 (second compound 3.16 µM) was 5.07 µM and the IC50 (second compound 10 µM) was 7.92 µM. For the same compound, the viability, T/C [1] was 106%, the viability, T/C [2] was 86.7% and the viability, T/C [3] was 93.4%. For the same compound, the viability, T/C [4] was 77.5%, the viability, T/C [5] was 62.2% and the viability, T/C [6] was 38.8%. The viability, T/C [7] was 93.8%, the viability, T/C [8] was 95.5% and the viability, T/C [9] was 89.1%. For the same compound, the viability, T/C [10] was 73.2%, the viability, T/C [11] was 59.1% and the viability, T/C [12] was 47.4%. For the same compound, the viability, T/C [13] was 96.8%, the viability, T/C [14] was 101% and the viability, T/C [15] was 91.9%. It also gave a viability, T/C [16] of 83.5%, a viability, T/C [17] of 60.6% and a viability, T/C [18] of 43.4%. For the same compound, the viability, T/C [19] was 91.3%, the viability, T/C [20] was 99.9% and the viability, T/C [21] was 89.8%. It also gave a viability, T/C [22] of 86.1%, a viability, T/C [23] of 59.4% and a viability, T/C [24] of 42%. For the same compound, the viability, T/C [25] was 94.6%, the viability, T/C [26] was 96.1% and the viability, T/C [27] was 84%. It also gave a viability, T/C [28] of 84.9%, a viability, T/C [29] of 54.8% and a viability, T/C [30] of 42.4%. For the same compound, the viability, T/C [31] was 88.7%, the viability, T/C [32] was 102% and the viability, T/C [33] was 82.4%. The viability, T/C [34] was 77.8%, the viability, T/C [35] was 62.4% and the viability, T/C [36] was 46.8%.
For `O=C(c1cc(Cc2n[nH]c(=O)c3ccccc23)ccc1F)N1CCN(C(=O)C2CC2)CC1` + CN(C)c1ccc(Nc2c3ccc(NC(=O)CCN4CCCC4)cc3nc3cc(NC(=O)CCN4CCCC4)ccc23)cc1, the IC50 (second compound 0.0316 µM) was over 10 µM, the IC50 (second compound 0.1 µM) was over 10 µM and the IC50 (second compound 0.316 µM) was over 10 µM. It also gave an IC50 (second compound 1 µM) of over 10 µM, an IC50 (second compound 3.16 µM) of over 10 µM and an IC50 (second compound 10 µM) of over 10 µM. It also gave a viability, T/C [1] of 101%, a viability, T/C [2] of 92.1% and a viability, T/C [3] of 102%. For the same compound, the viability, T/C [4] was 99.6%, the viability, T/C [5] was 94.4% and the viability, T/C [6] was 95.5%. For the same compound, the viability, T/C [7] was 101%, the viability, T/C [8] was 96.6% and the viability, T/C [9] was 99.2%. The viability, T/C [10] was 97.9%, the viability, T/C [11] was 101% and the viability, T/C [12] was 87.3%. For the same compound, the viability, T/C [13] was 96.2%, the viability, T/C [14] was 104% and the viability, T/C [15] was 98.5%. The viability, T/C [16] was 96.2%, the viability, T/C [17] was 100% and the viability, T/C [18] was 90.8%. The viability, T/C [19] was 98.3%, the viability, T/C [20] was 95.1% and the viability, T/C [21] was 95.3%. For the same compound, the viability, T/C [22] was 97.6%, the viability, T/C [23] was 98.5% and the viability, T/C [24] was 107%. It also gave a viability, T/C [25] of 103%, a viability, T/C [26] of 99.7% and a viability, T/C [27] of 94.9%. For the same compound, the viability, T/C [28] was 101%, the viability, T/C [29] was 99.1% and the viability, T/C [30] was 99.7%. It also gave a viability, T/C [31] of 105%, a viability, T/C [32] of 96.8% and a viability, T/C [33] of 104%. The viability, T/C [34] was 93%, the viability, T/C [35] was 108% and the viability, T/C [36] was 94.9%.
